Experiments:
Type in all cases: in vivo
[1] = tested on: Echinochloa crus-galli var. crus-galli; assay: Test Example 5: herbicidal effect by foliage application, plastic box (symbol H); conditions: 320 g/ha, 3 weeks after application
Summary of the method: (§1)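 Greenhouse foliar test: seedlings at 14 days, grown 25° C. to 30° C. in sterilized diluvial soil; compound applied as an aqueous dilution of an emulsion; response read 3 weeks after spraying.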

[2] = tested on: Stellaria media; assay: Test Example 4: herbicidal effect by soil treatment (symbol P); conditions: 320 g/ha
Summary of the method: (§2)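 Seeds were sown in sterilized diluvial soil, covered with about 1.5 cm of soil, and the soil surface was sprayed with a water-diluted emulsion of the compound at a predetermined rate. Plants grew in a greenhouse at 25° C. to 30° C.; effects were scored visually 3 weeks after application.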

[3] = tested on: Abutilon theophrasti; assay: Test Example 5: herbicidal effect by foliage application, plastic box (symbol M); conditions: 320 g/ha, 3 weeks after application
Summary of the method: as §1

[4] = tested on: Apera spica-venti; assay: Test Example 4: herbicidal effect by soil treatment (symbol L); conditions: 320 g/ha
Summary of the method: as §2

[5] = tested on: Alopecurus myosuroides; assay: Test Example 4: herbicidal effect by soil treatment (symbol J); conditions: 320 g/ha
Summary of the method: as §2

[6] = tested on: corn; assay: Test Example 4: effect on crop by soil treatment (symbol c); conditions: 320 g/ha
Summary of the method: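 Soil-treatment setup: crop and weed seeds were spot-sown into sterilized diluvial soil, then buried beneath approximately 1.5 cm of it, and the boxes were housed in a 25–30° C. greenhouse.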

[7] = tested on: soybean; assay: Test Example 5: effect on crop by foliage application, plastic box (symbol d); conditions: 320 g/ha, 3 weeks after application
Summary of the method: (§3)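 Foliage-application test plants come from spot sowing in sterilized diluvial soil under a soil layer of about 1.5 cm, grown at 25° C. to 30° C. in a greenhouse.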

[8] = tested on: wheat; assay: Test Example 5: effect on crop by foliage application, plastic box (symbol e); conditions: 320 g/ha, 3 weeks after application
Summary of the method: as §3

[9] = tested on: directly sowed rice plant; assay: Test Example 3: effect on crop by foliage application, Wagner pot (symbol b); conditions: application herbicide amount 320 g/ha
Summary of the method: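 Alluvial soil in a 1/10000-are Wagner pot was flooded to a water depth of 0.1–0.5 cm. Echinochloa crus-galli var. crus-galli, Leptochloa chinensis, Cyperus difformis and rice were sown into it and grown in a greenhouse at 25–30 °C.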

[10] = tested on: Veronica persica; assay: Test Example 5: herbicidal effect by foliage application, plastic box (symbol R); conditions: 320 g/ha, 3 weeks after application
Summary of the method: as §1

[11] = tested on: Lolium multiflorum Lam.; assay: Test Example 4: herbicidal effect by soil treatment (symbol K); conditions: 320 g/ha
Summary of the method: as §2

[12] = tested on: Monochoria vaginalis; assay: Test Example 1: herbicidal activity, application before weed generation in submerged conditions (symbol C); conditions: application herbicide amount 320 g/ha
Summary of the method: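 Greenhouse growth at 25–30 °C lasted 3 weeks after treatment, when each weed was graded 0–5 by herbicidal ratio. Treatment was a diluted emulsion applied to the water surface of 4 cm-submerged alluvial soil on the sowing day.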

[13] = tested on: Amaranthus retroflexus; assay: Test Example 4: herbicidal effect by soil treatment (symbol N); conditions: 320 g/ha
Summary of the method: as §2

[14] = tested on: Chenopodium album; assay: Test Example 5: herbicidal effect by foliage application, plastic box (symbol O); conditions: 320 g/ha, 3 weeks after application
Summary of the method: as §1

[15] = tested on: Echinochloa crus-galli var. crus-galli; assay: Test Example 3: herbicidal effect by foliage application, Wagner pot (symbol H); conditions: application herbicide amount 320 g/ha
Summary of the method: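 In a shallow-flooded alluvial soil system held at 25–30 °C, plants including rice grew for 14 days and were then sprayed over the foliage with emulsion diluted to a fixed herbicide amount. Visual rating followed at 3 weeks.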

[16] = tested on: Setaria viridis; assay: Test Example 5: herbicidal effect by foliage application, plastic box (symbol G); conditions: 320 g/ha, 3 weeks after application
Summary of the method: as §1

Compound	H: Echinochloa crus-galli var. crus-galli, herbicidal effect (criteria 0-5) [1]	P: Stellaria media, herbicidal effect grade [2]	M: Abutilon theophrasti, herbicidal effect (criteria 0-5) [3]	L: Apera spica-venti, herbicidal effect grade [4]	J: Alopecurus myosuroides, herbicidal effect grade [5]	c: corn, effect grade on crop [6]	d: soybean, effect on crop (criteria 0-5) [7]	e: wheat, effect on crop (criteria 0-5) [8]	effect on crop b (directly sowed rice plant), grade 0-5 [9]	R: Veronica persica, herbicidal effect (criteria 0-5) [10]	K: Lolium multiflorum Lam., herbicidal effect grade [11]	Herbicidal effect grade, C: Monochoria vaginalis [12]	N: Amaranthus retroflexus, herbicidal effect grade [13]	O: Chenopodium album, herbicidal effect (criteria 0-5) [14]	herbicidal effect on H (Echinochloa crus-galli var. crus-galli), grade 0-5 [15]	G: Setaria viridis, herbicidal effect (criteria 0-5) [16]
CON=C(C)CC1CC(OC(=O)COCC(F)(F)F)=C(c2c(C)cc(C)cc2C)C1=O (centres unmarked) [1-092]	5 (Herbicidal ratio of 90% or more (almost completely withered))	0 (Herbicidal ratio of 5% or lower (almost no effect))	3 (Herbicidal ratio of 40% or higher and lower than 70%)	5 (Herbicidal ratio of 90% or more (almost completely withered))	4 (Herbicidal ratio of 70% or higher and lower than 90%)	5 (Herbicidal ratio of 90% or more (almost completely withered))	0 (Herbicidal ratio of 5% or lower (almost no effect))	4 (Herbicidal ratio of 70% or higher and lower than 90%)	5 (Herbicidal ratio of 90% or more (almost completely withered))	0 (Herbicidal ratio of 5% or lower (almost no effect))	5 (Herbicidal ratio of 90% or more (almost completely withered))	0 (Herbicidal ratio of 5% or lower (almost no effect))	3 (Herbicidal ratio of 40% or higher and lower than 70%)	0 (Herbicidal ratio of 5% or lower (almost no effect))	5 (Herbicidal ratio of 90% or more (almost completely withered))	5 (Herbicidal ratio of 90% or more (almost completely withered))
COCC(=O)OC1=C(c2c(C)cc(C)cc2C)C(=O)C(CC(C)=NOC)C1 (centres unmarked) [1-093]	5 (Herbicidal ratio of 90% or more (almost completely withered))	0 (Herbicidal ratio of 5% or lower (almost no effect))	4 (Herbicidal ratio of 70% or higher and lower than 90%)	5 (Herbicidal ratio of 90% or more (almost completely withered))	5 (Herbicidal ratio of 90% or more (almost completely withered))	5 (Herbicidal ratio of 90% or more (almost completely withered))	3 (Herbicidal ratio of 40% or higher and lower than 70%)	5 (Herbicidal ratio of 90% or more (almost completely withered))	5 (Herbicidal ratio of 90% or more (almost completely withered))	3 (Herbicidal ratio of 40% or higher and lower than 70%)	5 (Herbicidal ratio of 90% or more (almost completely withered))	2 (Herbicidal ratio of 20% or higher and lower than 40%)	3 (Herbicidal ratio of 40% or higher and lower than 70%)	0 (Herbicidal ratio of 5% or lower (almost no effect))	5 (Herbicidal ratio of 90% or more (almost completely withered))	5 (Herbicidal ratio of 90% or more (almost completely withered))
